Assay results: the supplement of paper PMC10307832

Experiments:
Experiment in all cases: relative viability (nuclei count vs DMSO), 5 days (fraction); higher = more cells survive
[1] = compound: CC1(C)CNc2cc(NC(=O)c3cccnc3NCc3ccncc3)ccc21 [Motesanib] + COc1cccc2cc(-c3nc([C@H]4CC[C@H](C(=O)O)CC4)n4ncnc(N)c34)[nH]c12 [OSI-027] (partner 0.5 µM)
Method in brief: (§1)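 Relative viability divides the nuclei count in treated wells by that in vehicle wells. Lung cancer cell lines were seeded in 1536-well plates, dosed by pin tool the next day, and fixed and stained after 5 days in one step with final 0.05% Triton X-100, 1% formaldehyde and 1 ug/ml Hoechst. Dosing was a single drug or a fixed anchor-drug dose plus five library-drug doses (not always all listed) in √10 steps, and values are medians of duplicate plates imaged at 4×.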

[2] = compound: CC1(C)CNc2cc(NC(=O)c3cccnc3NCc3ccncc3)ccc21 [Motesanib] + CS(=O)(=O)N1CCN(Cc2cc3nc(-c4cccc5[nH]ncc45)nc(N4CCOCC4)c3s2)CC1 [Pictilisib] (partner 1 µM)
Method in brief: as §1

[3] = compound: CC1(C)CNc2cc(NC(=O)c3cccnc3NCc3ccncc3)ccc21 [Motesanib] + C[C@]1(O)C[C@@H](c2nc(-c3ccc4ccc(-c5ccccc5)nc4c3)c3c(N)nccn32)C1 [Linsitinib] (partner 1 µM)
Method in brief: as §1

[4] = compound: CC1(C)CNc2cc(NC(=O)c3cccnc3NCc3ccncc3)ccc21 [Motesanib] + Cc1cc(Nc2cc(N3CCN(C)CC3)nc(Sc3ccc(NC(=O)C4CC4)cc3)n2)n[nH]1 [Tozasertib] (partner 0.1 µM)
Method in brief: as §1

| Cell Line | relative viability ([1]; first compound 0.01 µM) | relative viability ([1]; first compound 0.03162 µM) | relative viability ([1]; first compound 0.1 µM) | relative viability ([1]; first compound 0.3162 µM) | relative viability ([1]; first compound 1 µM) | relative viability ([2]; first compound 0.01 µM) | relative viability ([2]; first compound 0.03162 µM) | relative viability ([2]; first compound 0.1 µM) | relative viability ([2]; first compound 0.3162 µM) | relative viability ([2]; first compound 1 µM) | relative viability ([3]; first compound 0.01 µM) | relative viability ([3]; first compound 0.03162 µM) | relative viability ([3]; first compound 0.1 µM) | relative viability ([3]; first compound 0.3162 µM) | relative viability ([3]; first compound 1 µM) | relative viability ([4]; first compound 0.01 µM) | relative viability ([4]; first compound 0.03162 µM) | relative viability ([4]; first compound 0.1 µM) | relative viability ([4]; first compound 0.3162 µM) | relative viability ([4]; first compound 1 µM) |
| --- | --- | --- | --- | --- | --- | --- | --- | --- | --- | --- | --- | --- | --- | --- | --- | --- | --- | --- | --- | --- |
| LU99A | 0.287 | 0.261 | 0.301 | 0.307 | 0.322 | 0.348 | 0.327 | 0.309 | 0.386 | 0.352 | 0.496 | 0.565 | 0.537 | 0.511 | 0.594 | 0.262 | 0.234 | 0.263 | 0.273 | 0.263 |
| LXF-289 | 0.708 | 0.841 | 0.857 | 0.912 | 0.886 | 0.776 | 0.811 | 0.774 | 0.806 | 0.835 | 0.958 | 0.974 | 1.02 | 1 | 1.02 | 0.228 | 0.182 | 0.184 | 0.27 | 0.212 |
| NCI-H23 | 0.602 | 0.593 | 0.609 | 0.675 | 0.614 | 0.415 | 0.41 | – | 0.562 | 0.53 | 0.582 | 0.609 | – | 0.56 | 0.527 | 0.346 | 0.31 | 0.341 | 0.363 | 0.333 |
| NCI-H322M | 0.471 | 0.584 | 0.506 | 0.584 | 0.566 | 0.52 | 0.544 | 0.511 | 0.439 | 0.538 | 1.03 | 0.91 | 0.913 | 0.92 | 0.98 | 0.494 | 0.442 | 0.502 | 0.485 | 0.447 |
| NCI-H358 | 0.9 | 0.802 | 0.767 | 0.906 | 0.716 | 0.303 | 0.336 | 0.351 | 0.435 | 0.338 | 0.7 | 0.818 | 0.712 | 0.785 | 0.905 | 0.103 | 0.103 | 0.104 | 0.103 | 0.107 |
| NCI-H441 | 0.557 | 0.619 | 0.608 | 0.577 | 0.547 | 0.414 | 0.524 | 0.518 | 0.441 | 0.506 | 0.519 | 0.545 | 0.626 | 0.603 | 0.875 | 0.675 | 0.518 | 0.66 | 0.543 | 0.578 |
| NCI-H460 | 0.616 | 0.633 | 0.619 | 0.635 | 0.632 | 0.356 | 0.424 | 0.302 | 0.364 | 0.493 | 0.836 | 0.817 | 0.726 | 0.899 | 0.744 | 0.416 | 0.266 | 0.514 | 0.442 | 0.485 |
| NCI-H520 | 0.29 | 0.226 | 0.231 | 0.24 | 0.253 | 0.269 | 0.267 | 0.345 | 0.284 | 0.207 | 0.86 | 1.02 | 0.911 | 1.18 | 0.923 | 0.37 | 0.371 | 0.453 | 0.45 | 0.447 |
| NCI-H596 | 0.913 | 0.772 | 0.732 | 0.6 | 0.75 | 0.391 | 0.427 | 0.362 | 0.384 | 0.406 | 1.1 | 0.937 | 1.08 | 1.12 | 1.08 | 0.917 | 1.27 | 1.04 | 0.843 | 1.01 |
| NCI-H647 | 0.848 | 0.528 | 0.578 | 0.717 | 0.557 | – | 0.394 | 0.408 | 0.333 | 0.442 | 1.17 | 1.12 | 1.38 | 1.14 | 1.14 | 0.304 | 0.239 | 0.285 | 0.404 | 0.359 |
| NCI-H650 | 0.529 | – | 0.539 | 0.574 | 0.537 | 0.832 | 0.757 | 0.875 | 0.992 | 0.854 | 0.779 | 0.833 | 0.936 | 1.02 | 0.795 | 0.749 | – | 0.709 | 0.707 | 0.701 |
| NCI-H661 | 0.73 | 0.741 | 0.848 | 0.749 | 0.576 | 0.327 | 0.35 | 0.348 | 0.379 | 0.43 | 0.518 | 0.528 | 0.559 | 0.593 | 0.495 | 0.372 | 0.357 | 0.367 | 0.361 | 0.351 |
| NCI-H727 | 0.539 | 0.767 | 0.833 | 0.555 | 0.425 | 0.324 | 0.369 | 0.463 | 0.464 | 0.379 | 0.3 | 0.329 | 0.304 | 0.292 | 0.15 | 0.603 | 0.574 | 0.638 | 0.645 | 0.577 |
| NCI-H838 | 0.448 | 0.313 | 0.394 | 0.438 | 0.415 | 0.496 | 0.441 | 0.462 | 0.449 | 0.508 | 1.05 | 1.09 | 1.06 | 1.08 | 1.07 | 0.296 | 0.244 | 0.255 | 0.236 | 0.249 |
| NCI-H1355 | 0.411 | 0.424 | 0.39 | 0.414 | 0.431 | 0.47 | 0.475 | 0.406 | 0.502 | 0.485 | 0.792 | 0.75 | 0.801 | 0.865 | 0.834 | 0.556 | 0.414 | 0.639 | 0.59 | 0.448 |
| NCI-H1395 | 0.576 | 0.579 | 0.658 | 0.636 | 0.564 | 0.61 | 0.566 | 0.609 | 0.646 | 0.703 | 0.992 | 1.03 | 1 | 1.11 | 1.35 | 0.777 | 0.779 | 0.816 | 0.757 | 0.773 |
| NCI-H1437 | 0.872 | 0.899 | 0.903 | 0.803 | 0.856 | 0.441 | 0.441 | 0.467 | 0.502 | 0.406 | 0.972 | 1.08 | 1.01 | 1.01 | 1.13 | 0.398 | 0.375 | 0.393 | 0.423 | 0.408 |
| NCI-H1651 | 0.848 | 0.663 | 0.628 | 0.652 | 0.615 | 0.607 | 0.538 | 0.516 | 0.562 | 0.51 | 0.917 | 0.912 | 0.966 | 0.944 | 1.08 | 0.67 | 0.655 | 0.754 | 0.732 | 0.797 |
| NCI-H1666 | 0.784 | 0.816 | 0.894 | 0.937 | 0.859 | 0.466 | 0.5 | 0.416 | 0.463 | 0.49 | 0.966 | 0.83 | 0.786 | 0.788 | 0.753 | 0.665 | 0.599 | 0.634 | 0.6 | 0.617 |
| NCI-H1734 | 0.659 | 0.602 | – | 0.58 | 0.527 | 0.446 | 0.496 | 0.461 | 0.479 | 0.48 | 0.843 | 0.951 | 0.897 | 0.976 | 1.01 | 0.312 | 0.253 | – | 0.25 | 0.254 |
| NCI-H1755 | 0.661 | 0.682 | 0.746 | 0.826 | 0.652 | 0.395 | 0.423 | 0.442 | 0.454 | 0.402 | 1.02 | 0.999 | 1.03 | 1.02 | 1.02 | 0.498 | 0.588 | 0.568 | 0.652 | 0.537 |
| NCI-H1793 | 0.26 | 0.272 | 0.261 | 0.284 | 0.302 | 0.364 | 0.282 | 0.301 | 0.34 | 0.469 | 0.877 | 0.802 | 0.796 | 0.793 | 0.76 | 0.37 | 0.268 | 0.422 | 0.321 | 0.302 |
| NCI-H1915 | 0.575 | 0.72 | 0.625 | 0.631 | 0.632 | 0.933 | 0.984 | 0.657 | 0.994 | 1.06 | 1.09 | 1.19 | 1.11 | 1.16 | 1.08 | 0.401 | 0.408 | 0.478 | 0.456 | 0.434 |
| NCI-H1944 | 0.37 | 0.424 | 0.438 | 0.475 | 0.427 | 0.322 | 0.342 | 0.399 | 0.379 | 0.364 | 1.2 | 1.21 | 1.18 | 1.32 | 1.21 | 0.258 | 0.229 | 0.233 | 0.236 | 0.284 |
| NCI-H1975 | 0.66 | 0.702 | 0.747 | 0.677 | 0.669 | 0.312 | 0.282 | 0.313 | 0.352 | 0.31 | 0.962 | 0.9 | 0.948 | 0.909 | 0.941 | 0.771 | 0.65 | 0.773 | 0.711 | 0.648 |
| NCI-H1993 | 0.526 | 0.554 | 0.552 | 0.543 | 0.557 | 0.676 | 0.917 | 0.899 | 0.767 | 0.805 | 0.675 | 0.759 | 0.727 | 0.719 | 0.762 | 0.603 | 0.614 | 0.552 | 0.501 | 0.605 |
| NCI-H2009 | 0.646 | 0.689 | 0.713 | 0.593 | 0.623 | 0.734 | 0.732 | 0.818 | 0.827 | 0.873 | 1.14 | 1.27 | 1.17 | 1.22 | 1.18 | 0.731 | 0.705 | 0.747 | 0.691 | 0.721 |
